Experimental findings from US20220002288A1, “MONOBACTAM COMPOUNDS AND USE THEREFOR” (priority 2018, published 2022) are described below.

≈ marks a conversion by molar mass, not a printed value. Structures can show the parent of a compound that is named as a salt. Where two headings read alike, the source gives them in different places.

One series deals with Acinetobacter baumannii. The series can be described thus: In vitro antibacterial activity, minimum inhibitory concentration (MIC). The format is cell-based. The procedure: (§1) Compounds: The compounds prepared in the above examples and comparative examples. All test compounds were dissolved and diluted with DMSO, and the final concentrations were prepared as 64, 32, 16, 8, 4, 2, 1, 0.5, 0.25, 0.125, 0.0625 μg/mL in the experiment.
(§2) Bacterial strains: 6 strains of Acinetobacter baumannii (codenames: HDBAB-YK4, HDBAB-YK7, HDBAB-YK12, HDBAB-YK16, HDBAB_OXA_7, ATCC 19606), 2 strains of Pseudomonas aeruginosa (codenames: HDBPA-YK9, HDBPA)-YK15), 1 strain of Escherichia coli (codename: CLB30048), all provided by HD Biosciences (Shanghai) Co., Ltd.
(§3) Medium: Trypticase soy agar (TSA) (BD BBL 211043), and Cation-adjusted Mueller Hinton broth (CAMHB) (BD BBL212322).
(§4) The bacteria used for the minimum inhibitory concentration (MIC) test were stored frozen at −80° C., and needed 2 days to recover before use. A small amount of frozen bacteria was scraped with a sterile inoculation loop for streak inoculation on a TSA solid medium petri dish. The dish was placed in an ordinary incubator at 35±2° C. for 20-24 hours. 5-10 Colonies with similar morphologies were picked from the above-mentioned petri dish with a sterile inoculating loop for streak inoculation again on a TSA solid medium petri dish. The dish was then placed in an ordinary incubator at 35±2° C. for 20-24 hours.
(§5) 1.02×CAMHB liquid medium was taken out from a 4° C. refrigerator and placed at room temperature for preheating. 5-10 Individual bacterial colonies were picked from the solid petri dish of the above Section 2.1 and re-suspended in 500 μL of 0.9% NaCl, and then the OD600 was adjusted to 0.1-0.15 with a spectrophotometer. Then the bacteria were diluted 400 times with 1.02×CAMHB (two-step dilution method: firstly diluting 10 times, then diluting 40 times).
(§6) The number of inoculated bacteria can be obtained by counting the colonies on the petri dish (see Section 2.4).
(§7) One compound was arranged in each row of a 96-well test plate: the highest test concentration for each compound was 64 μg/mL, which was diluted by a factor of two.
(§8) Growth control (GC): 1.02×CAMHB and dimethyl sulfoxide (DMSO) containing bacterial inoculum, no compound.
(§9) Sterile control (SC): Containing 1.02×CAMHB and DMSO, no compound.
(§10) All test compounds were dissolved and diluted with DMSO. 50 μL of 3.2 mg/mL of each test compound was transferred to the initial well (A1-H1) of the dilution plate, and then 25 μL of DMSO was transferred to other wells. The test compounds were sequentially diluted by a factor of 2 from column 1 to column 11 (i.e. drawing 25 μL of test compound from column 1 to column 2 and mixing well, and then drawing 25 μL of test compound from column 2 to column 3 and mixing well, and then drawing 25 μL of test compound from column 3 to column 4 and mixing well, and so on, until diluting to column 11).
(§11) 2 μL of the compound was transferred from the compound plate to the corresponding well of the test plate. Meanwhile, 2 μL of 100% DMSO was transferred to the compound-free wells (the GC and SC wells).
(§12) 98 μL of the corresponding bacterial inoculum was added to the test plate (except for the SC well).
(§13) 98 μL of 1.02×CAMHB medium was added to the SC well of the test plate.
(§14) After the system was added, the test plate was covered with a sterile lid, centrifuged at 800 rpm for 30 seconds, then shaken on a plate shaker at 400 rpm for 1 minute for mixing well, and then placed in an incubator at 35±2° C. for 20 hours.
(§15) The inoculated bacteria were gradient diluted by 10 folds with the liquid medium, from 10^−1 to 10^−3. 100 μL of the above bacterial dilution was spread evenly on a TSA petri dish, 2 replicates for each dilution. After the medium was absorbed by TSA for 10 minutes, the petri dishes were reversed and incubated in an incubator at 35±2° C. for 24 hours.
(§16) A compound management system was turned on to check whether the barcode and compound arrangement of each test plate were correct. […]

For the next series, the system named is Escherichia coli. The series is described as above. The format is cell-based. The procedure:
as §1, §2, §3, §4, §5, §6, §7, §8, §9, §10, §11, §12, §13, §14, §15, §16

For a further series, the system named is Pseudomonas aeruginosa. Described as above. Format: cell-based. As to the method:
as §1, §2, §3, §4, §5, §6, §7, §8, §9, §10, §11, §12, §13, §14, §15, §16

Series [1] has as its system Acinetobacter baumannii, Pseudomonas aeruginosa, and Escherichia coli. Description: In vitro antibacterial activity, summary statements over all strains of Experimental Example 1. The format is cell-based. Particulars: method of Experimental Example 1. The procedure:
as §1, §2
The minimum inhibitory concentration (MIC) of each compound was recorded according to the guidelines of the Clinical and Laboratory Standards Institute.

A short description of series [2]: Pharmacokinetics of the compounds in mice. The format is in vivo, BALB/c mice. Particulars: mouse, plasma, male BALB/c mice, single intravenous dose 2 mg/kg, plasma; for Vd: male, BALB/c, iv, 2 mg/kg. An excerpt:
Animals: male BALB/c mice, SPF grade, purchased from Changzhou Cavens Experimental Animal Co., Ltd.; 16-24 g, license number: SCXK (Su)2016-0010; 2 to 3 days of adaptation period were given before the experiment.
Instruments: API 4500 High Performance Liquid Chromatograph Coupled Triple Quadrupole Mass Spectrometer, and Analyst QS A01.01 Chromatography Workstation were both purchased from AB SCIEX of the United States; Milli-Q ultrapure water device was purchased from Millipore; CF16R XII desktop high-speed refrigerated centrifuge was purchased From Hitachi Company; Qilinbeier Vortex-5 oscillator was purchased from IKA Company of German; electric heating constant-temperature water bath was purchased from Changzhou Guohua Electric Appliance Co., Ltd.; electric pipette was purchased from Thermo Company of American; and microanalysis balance was purchased from Shanghai Mettler Co., Ltd.
2 mg of the test compound was weighed, added to physiological saline, vortexed for 2 min, and ultrasonicated for 3 min, to prepare a test solution with a concentration of 0.2 mg/mL for intravenous administration.
A single dose of 2 mg/kg of the test compound was administered to BALB/c mice via the tail vein, the dose volume being 0.1 mL/10 g. At 5 min, 15 min, 30 min, 1 h, 2 h, 4 h after administration, blood samples were collected from the orbital venous plexus into heparinized EP tubes (0.6 mL), which were temporarily placed on crushed ice.
The samples were centrifuged at 8000 rpm for 5 min. 15 μL of upper plasma were transferred to a 96-well plate. 150 μL of methanol:acetonitrile (v/v=1:1) (containing 20 ng/mL tolbutamide) was added to 15 μL of plasma, shaken for 3 min, and centrifuged at 4500 rpm for 5 min. 100 μL of supernatant was taken to a 2 mL deep well plate. 100 μL of diluent (pure water) was added. The samples were shaken for 3 min, and centrifuged at 4500 rpm for 5 min. 180 μL of the supernatant was transferred to the sample plate. The content of the compound in the supernatant sample was analyzed by LC-MS/MS, and various pharmacokinetic parameters were calculated with WinNonlin software.

The MIC is the lowest concentration found to suppress growth. For `C[n+]1cc(-c2ccc(OC[C@H](O/N=C(\C(=O)N[C@@H]3C(=O)N(OS(=O)(=O)[O-])C3(C)C)c3csc(N)n3)C(=O)O)cc2)ccc1NC(=O)[C@@H](N)CCN` [Example 9], the MIC with Acinetobacter baumannii (ATCC19606, strain ATCC 19606) stood at 2 µg/mL (≈ 2.67 µM); against Acinetobacter baumannii (strain HDBAB-YK4), 2 µg/mL (≈ 2.67 µM); with Acinetobacter baumannii (strain HDBAB-YK7), 0.25 µg/mL (≈ 0.333 µM); with Acinetobacter baumannii (strain HDBAB-YK12), 1 µg/mL (≈ 1.33 µM); with Acinetobacter baumannii (strain HDBAB-YK16), 8 µg/mL (≈ 10.7 µM); with Acinetobacter baumannii (strain HDBAB_OXA_7) it was 8 µg/mL (≈ 10.7 µM). The MIC was 2 µg/mL (≈ 2.67 µM) with Escherichia coli (strain CLB30048, read-out: MIC); 8 µg/mL (≈ 10.7 µM) against Pseudomonas aeruginosa (strain HDBPA-YK9); more than 64 µg/mL in the series with Pseudomonas aeruginosa (strain HDBPA-YK15). Moreover, the “in vitro antibacterial activity (in words)” value in series [1] is recorded as “excellent antibacterial activity”.

For `CC1[C@@H](NC(=O)/C(=N\OC2(C(=O)O)CC2)c2csc(N)n2)[C@@H](CN2CCOC2=O)N1S(=O)(=O)O` (stereo partly shown) [Compound B, reference compound], the MIC was more than 64 µg/mL in the series on Acinetobacter baumannii (strain HDBAB-YK4); more than 64 µg/mL in the series with Acinetobacter baumannii (strain HDBAB-YK7); more than 64 µg/mL with Acinetobacter baumannii (strain HDBAB-YK12); more than 64 µg/mL against Acinetobacter baumannii (strain HDBAB-YK16); more than 64 µg/mL against Acinetobacter baumannii (strain HDBAB_OXA_7); more than 64 µg/mL with Escherichia coli (strain CLB30048, read-out: MIC). For the same compound, the MIC against Pseudomonas aeruginosa (strain HDBPA-YK9) and in the series with Pseudomonas aeruginosa (strain HDBPA-YK15) was more than 64 µg/mL in each case. Besides, the “in vitro antibacterial activity (in words)” value in series [1] was “significantly weaker”.

For the compound `CC1(C)[C@H](NC(=O)/C(=N\O[C@@H](COc2ccc(NC(=O)c3cn(CCCN)[n+](CC4CNC4)c3)cc2)C(=O)O)c2csc(N)n2)C(=O)N1OS(=O)(=O)[O-]` [Example 2, (S)-3-((Z)-2-(((S)-2-(4-(1-(3-aminopropyl)-2-(azetidin-3-ylmethyl)-1H-pyrazol-2-ium-4-carboxamido)phenoxy)-1-carboxyethoxy)imino)-2-(2-aminothiazol-4-yl)acetylamido)-2,2-dimethyl-4-oxoazetidin-1-yl Sulfate], the MIC against Acinetobacter baumannii (ATCC19606, strain ATCC 19606) was 2 µg/mL; in the series on Acinetobacter baumannii (strain HDBAB-YK4) it was 2 µg/mL; in the series with Acinetobacter baumannii (strain HDBAB-YK7) it was 0.625 µg/mL; in the series on Acinetobacter baumannii (strain HDBAB-YK12), 2 µg/mL; in the series on Acinetobacter baumannii (strain HDBAB-YK16), 8 µg/mL; against Acinetobacter baumannii (strain HDBAB_OXA_7), 4 µg/mL. Further, the minimum inhibitory concentration (MIC) was 1 µg/mL against Escherichia coli, 4 µg/mL against Pseudomonas aeruginosa (strain HDBPA-YK9) and more than 64 µg/mL in the series with Pseudomonas aeruginosa (strain HDBPA-YK15). Besides, the “in vitro antibacterial activity (in words)” value in series [1] is “excellent antibacterial activity”.

Broadly, the AUC(0-inf) is total exposure, with the tail of the curve extrapolated. Read a high AUC(0-inf) as high exposure. By AUC(0-t) is commonly meant exposure summed from dosing to a finite time, without extrapolation to infinity. A higher AUC(0-t) goes with high exposure. One may read the clearance as the rate of elimination divided by the concentration. A low value points to inefficient removal. As usually defined, the half-life is how long it takes for the measured level to halve. Low readings indicate rapid decline, high ones slow decline. `CC1(C)[C@H](NC(=O)/C(=N\O[C@@H](COc2ccc(-c3cn4[n+](c3)CC(OCCCN)C4)cc2)C(=O)O)c2csc(N)n2)C(=O)N1OS(=O)(=O)[O-]` (stereo partly drawn) [Example 3, (3S)-3-((Z)-2-(((1S)-2-(4-(2-(3-aminopropoxy)-2,3-dihydro-1H-pyrazolo[1,2-a]pyrazol-4-ium-6-yl)phenoxy)-1-carboxyethoxy)imino)-2-(2-aminothiazol-4-yl)acetylamino)-2,2-dimethyl-4-oxoazetidin-1-yl Sulfate]: the MIC is 2 µg/mL against Acinetobacter baumannii (ATCC19606, strain ATCC 19606); 2 µg/mL against Acinetobacter baumannii (strain HDBAB-YK4); 2 µg/mL in the series on Acinetobacter baumannii (strain HDBAB-YK7); 2 µg/mL in the series with Acinetobacter baumannii (strain HDBAB-YK12); 16 µg/mL against Acinetobacter baumannii (strain HDBAB-YK16); 8 µg/mL with Acinetobacter baumannii (strain HDBAB_OXA_7). Besides, the MIC is 4 µg/mL with Escherichia coli (strain CLB30048, read-out: MIC); 16 µg/mL with Pseudomonas aeruginosa (strain HDBPA-YK9); more than 64 µg/mL in the series on Pseudomonas aeruginosa (strain HDBPA-YK15). Also, the Vd in series [2] (read-out: VSS) came to 0.26 L/kg; in series [2] (read-out: Vd), 0.35 L/kg. In addition, in series [2], the AUC(0-inf) was 2310 ng·h/mL. The AUC(0-t) in series [2] turned out to be 2300 ng·h/mL. This compound also came in with a C0 in series [2] of 8650 ng/mL. The clearance in series [2] is 14.5 mL/min/kg. Further, the half-life in series [2] is 16.8 min. The “in vitro antibacterial activity (in words)” value in series [1] is reported as “excellent antibacterial activity”.

As for `CC(CN)Nc1ccc(-c2ccc(OC[C@H](O/N=C(\C(=O)N[C@@H]3C(=O)N(OS(=O)(=O)[O-])C3(C)C)c3csc(N)n3)C(=O)O)cc2)c[n+]1C` (stereo partly shown) [Compound A, reference compound], the MIC with Acinetobacter baumannii (strain HDBAB-YK4) worked out at 16 µg/mL (≈ 22.6 µM); with Acinetobacter baumannii (strain HDBAB-YK7), 8 µg/mL (≈ 11.3 µM); with Acinetobacter baumannii (strain HDBAB-YK12) it was 4 µg/mL (≈ 5.66 µM); with Acinetobacter baumannii (strain HDBAB-YK16) it was 16 µg/mL (≈ 22.6 µM); against Acinetobacter baumannii (strain HDBAB_OXA_7) it was 16 µg/mL (≈ 22.6 µM); in the series on Escherichia coli (strain CLB30048, read-out: MIC), 8 µg/mL (≈ 11.3 µM). Moreover, the MIC was determined as 16 µg/mL (≈ 22.6 µM) in the series on Pseudomonas aeruginosa (strain HDBPA-YK9) and 64 µg/mL (≈ 90.6 µM) against Pseudomonas aeruginosa (strain HDBPA-YK15). The Vd in series [2] (read-out: VSS) worked out at 0.4 L/kg. The compound further gave an AUC(0-inf) in series [2] of 2800 ng·h/mL. In series [2], this compound showed an AUC(0-t) of 2140 ng·h/mL. The compound also returned a C0 in series [2] of 5920 ng/mL. The clearance in series [2] was 265 mL/min/kg. Also, in series [2], the half-life was 18 min. For the same compound, the “in vitro antibacterial activity (in words)” value in series [1] was “significantly weaker”.
